The star is where a group is joined. AMC = Cc1cc(=O)oc2cc(N*)ccc12
Assays:
Assay type in all cases: biochemical
[1] = target: T1, interleukin-1β converting enzyme (Homo sapiens, UniProt P29466); assay: Direct fluorometric assay of ICE activity of DEAE-purified THP-1 cell lysate (Example 1A); parameters: THP-1 cell lysate purified approximately 100-fold using DEAE-anion exchange chromatography; endogenous in cells; host or cells: THP-1 cells (lysate, about 100-fold DEAE-purified); conditions: substrate cleavage, 25 °C, pH 7.5, 5 µl of 5 mM substrate and 5 µl enzyme (5 units/ul) in 490 µl buffer
T1 sequence (P29466 120-297 limits assumed): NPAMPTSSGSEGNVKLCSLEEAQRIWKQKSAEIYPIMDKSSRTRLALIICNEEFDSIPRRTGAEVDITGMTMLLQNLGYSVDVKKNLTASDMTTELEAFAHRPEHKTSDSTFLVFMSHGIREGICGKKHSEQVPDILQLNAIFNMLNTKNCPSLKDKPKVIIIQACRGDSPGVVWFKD
T1 sequence (P29466 317-404 limits assumed): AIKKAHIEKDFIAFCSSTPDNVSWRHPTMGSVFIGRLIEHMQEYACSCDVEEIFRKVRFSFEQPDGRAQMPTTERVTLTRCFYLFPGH
Procedure: Direct Assay: Interleukin 1β activity of Activity of DEAE-purified THP-1 cell lysate.
(§1) Enzyme: THP-1 cell lysate purified approximately 100-fold using DEAE-anion exchange chromatography stock concentration = 5 units/ul (a unit is defined as the amount of enzyme required to produce 1 pmole of AMC/min at 25 degrees using saturating levels of substrate (> = 50 µM).
Substrate: N-(N-Acetyl-Tyrosinyl)-Valinyl-alaninylaspartic acid 7-amino-4-methylcoumarin amide (i.e. Ac-Tyr-Val-Ala-Asp-AMC) 5 mM stock solution in DMSO
Buffer: 100 mM Hepes 10% sucrose 0.1% Chaps 1 mM DTT 1 mg/ml BSA pH 7.5 At 25 ° C, 5µl of substrate and 5µl of enzyme was added to 490 µl of Buffer as defined above.
Liberation of 7-Amino-4-methylcoumarin (AMC) was monitored using a Gilford Fluoro IV Spectrofluorometer using an excitation wavelength of 380 nm and an emmission wavelength of 460nm. 1µM AMC = 100% relative fluoroscence.

[2] = target: T1, interleukin-1β converting enzyme; assay: Direct fluorometric assay of ICE activity of DEAE-purified THP-1 cell lysate in the presence of an enzyme inhibitor (Example 1B); parameters: THP-1 cell lysate purified approximately 100-fold using DEAE-anion exchange chromatography; endogenous in cells; host or cells: THP-1 cells (lysate, about 100-fold DEAE-purified); conditions: 25 °C
Procedure: Direct Assay: Interleukin 1β activity of Activity of DEAE-purified THP-1 cell lysate in the presence of an enzyme inhibitor.
as §1
Substrate: Ac-Tyr-Val-Ala-Asp-AMC 5 mM stock solution in DMSO
(§2) Buffer: 100 mM Hepes 10% sucrose 0.1% Chaps 1 mM DTT 1 mg/ml BSA pH 7.5
Sample: compound Z (i.e. N-(N-acetyl-tyrosinylvalinyl-alaninyl)-3-amino-4-oxo butanoic acid) 2µM in H20
At 25 ° C, 5µl of substrate 5µl of enzyme and 5µl of sample were added to 485 µl of Buffer as defined above.
Liberation of AMC was monitored using a Gilford Fluoro IV Spectrofluorometer using an excitation wavelength of 380 nm and an emmission wavelength of 460nm. 1µM AMC = 100% relative fluoroscence.

[3] = target: T1, interleukin-1β converting enzyme; assay: Coupled fluorometric assay of ICE activity of DEAE-purified THP-1 cell lysate with leucine aminopeptidase (LAPM) (Example 3); parameters: THP-1 cell lysate purified approximately 100-fold using DEAE-anion exchange chromatography; endogenous in cells; host or cells: THP-1 cells (lysate, about 100-fold DEAE-purified); The coupling enzyme LAPM was purchased from Sigma, No. L-0632, and comes from porcine kidney microsomes; conditions: 25 C
Procedure: Coupled Assay: Interleukin 1β activity of Activity of DEAE-purified THP-1 cell lysate.
Enzyme: THP-1 cell lysate purified approximately 100-fold using DEAE-anion exchange chromatography stock concentration = 5 units/ul (a unit is defined as the amount of enzyme required to produce 1 pmole of AMC/min at 25 degrees using saturating levels of substrate ( = 50 uM).
Coupling Enzyme: Leucine Aminopetidase Microsomal (Type IV) (LAPM) (purified from porcine kidney microsomes) EC 3.4.11.2 Sigma No. L-0632 12.5 units/ml stock solution in DMSO
Substrate: Ac-Tyr-Val-Ala-Asp-Gly-AMC 5 mM stock solution in DMSO
as §2
At 25 C, 5µl of substrate 50 µl of LAPM, 5µl of ICE were added to 440 µl of buffer. Reaction is monitored continuously in a Gilford Fluoro-IV Spectrofluorometer. excitation wavelength = 380 nm emission wavelength = 460 nm 1 uM AMC = 100% relative fluoroescence

[4] = target: T1, interleukin-1β converting enzyme; assay: Direct spectrophotometric assay of ICE activity of DEAE-purified THP-1 cell lysate (Example 2); parameters: THP-1 cell lysate purified approximately 100-fold using DEAE-anion exchange chromatography; endogenous in cells; host or cells: THP-1 cells (lysate, about 100-fold DEAE-purified); conditions: 25 °C, pH 7.5
Procedure: Direct Assay: Interleukin 1β activity of Activity of DEAE-purified THP-1 cell lysate. Enzyme: THP-1 cell lysate purified approximately 100-fold using DEAE-anion exchange chromatography stock concentration = 5 units/ul (a unit is defined as the amount of enzyme required to produce 1 pmole of p-NA/min at 25 degrees using saturating levels of substrate. p-NA is para-nitroanaline.
Substrate: Ac-Tyr-Val-Ala-Asp-p-NA 5 mM stock solution in DMSO
as §2
At 25 ° C, […] of Buffer as defined above.
Reaction is monitored continuously in a Cary 219 spectrophotometer at a wavelength of 410 nm. Results: The rate of the reaction under these conditions is 0.005 absorbance units/min, corresponding to 0.5 uM pNA produced/min.

[5] = 5 µl of sample 2µM in 500 µl, substrate Ac-Tyr-Val-Ala-Asp-AMC

`CC(=O)N[C@@H](Cc1ccc(O)cc1)C(=O)N[C@H](C(=O)N[C@@H](C)C(=O)N[C@@H](CC(=O)O)C(=O)Nc1ccc2c(C)cc(=O)oc2c1)C(C)C` [Ac-Tyr-Val-Ala-Asp-AMC, N-(N-Acetyl-tyrosinyl-valinyl-alaninyl)-aspartic acid a-7-amino-4-methylcoumarin amide] was tested, and the rate [1] was 0.005 mM AMC/min, the “100% relative fluoroscence achieved in” value ([1]; 1µM AMC = 100% relative fluorescence) was 20 min and the initial velocity ([2]; uninhibited initial velocity of substrate cleavage in the presence of compound Z, pH 7.5) was 0.05 uM AMC produced/min.

In the case of “N-(N-Acetyl-tyrosinyl-valinyl-alaninyl-aspartylglycinyl)-7-amino-4-methylcoumarin (Ac-YVADG-{AMC}; SMILES CC(=O)N[C@@H](Cc1ccc(O)cc1)C(=O)N[C@H](C(=O)N[C@@H](C)C(=O)N[C@@H](CC(=O)O)C(=O)NCC(=O)Nc1ccc2c(C)cc(=O)oc2c1)C(C)C) [Ac-Tyr-Val-Ala-Asp-Gly-AMC]”, the “time required to reach 99% of the steady state of the ICE reaction” value ([3]; 7 x t 1/2, coupled assay with LAPM) was 11 min, the “velocity of the steady state reaction” value ([3]; coupled assay with LAPM, 5 µl of 5 mM substrate, 5 µl ICE in 500 µl, pH 7.5) was 0.05 uM AMC/min and the “rate constant that describes the approach to steady state” value ([3]; lag phase, determined by the amount of coupling enzyme (50 µl LAPM, 12.5 units/ml stock)) was 0.44 + 0.01 min -1.

“N-(N-acetyl-tyrosinylvalinyl-alaninyl)-3-amino-4-oxo butanoic acid [Compound Z]” was tested, and the “half-life for the slow onset of inhibition” value [2, 5] was 2.7 min, the “rate constant for inhibition” value [2, 5] was 0.25 min-^1 and the inhibition ([2]; slow onset of inhibition, value eventually approached, 5 µl of sample 2µM in 500 µl) was ~100%. The kind of inhibition ([2]; substrate Ac-Tyr-Val-Ala-Asp-AMC, 5 µl of sample 2µM in H2O in 500 µl, pH 7.5) was “slow, tight-binding inhibitor”.

In the case of `CC(=O)N[C@@H](Cc1ccc(O)cc1)C(=O)N[C@H](C(=O)N[C@@H](C)C(=O)N[C@@H](CC(=O)O)C(=O)Nc1ccc([N+](=O)[O-])cc1)C(C)C` [Ac-Tyr-Val-Ala-Asp-p-NA], the “rate of the reaction (pNA produced)” value ([4]; corresponding to the absorbance rate at 410 nm) was 0.5 uM pNA produced/min and the “rate of the reaction” value ([4]; substrate cleavage monitored at 410 nm, 5 mM substrate stock) was 0.005 absorbance units/min.
